Reference: article doi:10.1101/854513v2 (biorxiv, 2020)
Numbering of substitutions follows the chain as printed. Like-named read-outs stand apart in the source and are kept apart here.

Assays:
hM3Dq [1] = biological target: T1, hM3Dq (Homo sapiens, UniProt P20309, A239G/Y149C); test: cell-based
hM4Di [2] = biological target: T2, hM4Di (Homo sapiens, UniProt P08173, A203G/Y113C); test: BRET G protein dissociation; assay type: cell-based
T2 sequence (P08173 1-479 Y113C/A203G): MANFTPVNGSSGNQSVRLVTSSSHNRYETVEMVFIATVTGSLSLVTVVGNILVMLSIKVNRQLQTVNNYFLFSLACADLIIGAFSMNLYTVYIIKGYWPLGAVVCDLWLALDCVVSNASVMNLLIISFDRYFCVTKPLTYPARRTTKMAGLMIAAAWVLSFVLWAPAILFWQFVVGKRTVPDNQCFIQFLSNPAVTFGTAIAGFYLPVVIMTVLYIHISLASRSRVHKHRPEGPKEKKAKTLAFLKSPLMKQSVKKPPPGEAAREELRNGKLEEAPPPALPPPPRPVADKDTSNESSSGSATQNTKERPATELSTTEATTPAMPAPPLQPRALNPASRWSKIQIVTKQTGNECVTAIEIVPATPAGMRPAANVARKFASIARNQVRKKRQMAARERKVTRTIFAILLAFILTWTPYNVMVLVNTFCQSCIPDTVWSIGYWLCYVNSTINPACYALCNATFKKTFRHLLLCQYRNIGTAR

hM3Dq [3] = biological target: T1, hM3Dq; test: biochemical; assay type: binding
hM3 = hM3 (Homo sapiens, UniProt P20309); test: biochemical; assay type: binding
Chain of hM3 (P20309 whole entry): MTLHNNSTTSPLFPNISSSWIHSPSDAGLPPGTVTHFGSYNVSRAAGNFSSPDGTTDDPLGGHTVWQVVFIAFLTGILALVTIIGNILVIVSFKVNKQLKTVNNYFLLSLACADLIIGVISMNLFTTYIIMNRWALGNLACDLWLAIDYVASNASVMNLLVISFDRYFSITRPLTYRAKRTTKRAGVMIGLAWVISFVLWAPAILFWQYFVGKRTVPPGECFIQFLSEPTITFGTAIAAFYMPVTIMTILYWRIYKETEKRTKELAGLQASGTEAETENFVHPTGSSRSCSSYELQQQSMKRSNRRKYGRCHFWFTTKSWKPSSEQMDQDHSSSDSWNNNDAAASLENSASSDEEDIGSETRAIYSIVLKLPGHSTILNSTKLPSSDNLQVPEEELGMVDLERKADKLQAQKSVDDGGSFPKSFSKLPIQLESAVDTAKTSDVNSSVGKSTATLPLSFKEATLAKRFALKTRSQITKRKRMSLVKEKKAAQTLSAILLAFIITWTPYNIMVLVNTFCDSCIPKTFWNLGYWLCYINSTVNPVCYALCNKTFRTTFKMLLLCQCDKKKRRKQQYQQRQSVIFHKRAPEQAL

hM4Di [4] = biological target: T2, hM4Di; test: [3H]QNB competition binding
hM4 = biological target: T3, hM4 (Homo sapiens, UniProt P08173); test: [3H]QNB competition binding
T3 sequence (P08173 1-479): T2 sequence (P08173 1-479 Y113C/A203G) with C113Y, G203A

hM1 = biological target: T4, hM1 (Homo sapiens, UniProt P11229); test: radioligand competition binding
T4 sequence (P11229 1-460): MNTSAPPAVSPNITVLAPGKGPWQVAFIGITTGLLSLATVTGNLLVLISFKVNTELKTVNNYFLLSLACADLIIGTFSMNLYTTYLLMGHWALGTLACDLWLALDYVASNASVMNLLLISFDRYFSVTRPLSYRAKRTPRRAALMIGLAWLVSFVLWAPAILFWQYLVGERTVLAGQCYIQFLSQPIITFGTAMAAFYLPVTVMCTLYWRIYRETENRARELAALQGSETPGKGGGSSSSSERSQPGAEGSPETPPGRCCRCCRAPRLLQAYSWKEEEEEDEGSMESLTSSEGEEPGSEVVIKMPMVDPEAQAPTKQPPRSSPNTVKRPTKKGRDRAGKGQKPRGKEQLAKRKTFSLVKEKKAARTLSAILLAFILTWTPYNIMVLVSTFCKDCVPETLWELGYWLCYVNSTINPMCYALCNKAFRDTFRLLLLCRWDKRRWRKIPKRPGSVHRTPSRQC

hM5 = biological target: T5, hM5 (Homo sapiens, UniProt P08912); test: radioligand competition binding
T5 sequence (P08912 1-532): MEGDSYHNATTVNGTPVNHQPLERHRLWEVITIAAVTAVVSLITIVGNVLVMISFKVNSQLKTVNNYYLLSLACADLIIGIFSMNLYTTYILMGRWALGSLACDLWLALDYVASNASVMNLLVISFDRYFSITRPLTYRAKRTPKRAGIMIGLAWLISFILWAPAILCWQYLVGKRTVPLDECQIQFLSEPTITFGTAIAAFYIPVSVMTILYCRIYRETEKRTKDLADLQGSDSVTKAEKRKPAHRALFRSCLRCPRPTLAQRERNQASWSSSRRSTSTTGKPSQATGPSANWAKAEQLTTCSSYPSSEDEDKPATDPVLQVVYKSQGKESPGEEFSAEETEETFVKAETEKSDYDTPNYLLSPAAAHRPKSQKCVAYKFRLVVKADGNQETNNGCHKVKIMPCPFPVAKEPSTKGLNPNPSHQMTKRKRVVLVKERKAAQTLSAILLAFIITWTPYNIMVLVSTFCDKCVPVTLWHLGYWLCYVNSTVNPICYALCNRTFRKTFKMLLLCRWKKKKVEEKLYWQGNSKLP

T1 sequence (P20309 whole entry Y149C/A239G): as the sequence (P20309 whole entry) above, with Y149C, A239G counted along it

Row | Structure (SMILES) | EC50 (hM3Dq [1]) [nM] | EC50 (hM4Di [2]) [nM] | Ki (hM3Dq [3]) [nM] | Ki (hM3; HEK293T, [3H]QNB […]) [nM] | Ki (hM4Di [4]) [nM] | Ki (hM3) [nM] | Ki (hM4) [nM] | Ki (hM1) [nM] | Ki (hM5) [nM]
1 | c1ccc2c(c1)N=C(N1CCNCC1)c1ccccc1N2 [C21] | 5.2 | 2.6 | 850 | 270 |  |  |  |  | 
2 | C[N+]1([O-])CCN(C2=Nc3cc(Cl)ccc3Nc3ccccc32)CC1 [CNO] | 15 | 7.3 | 680 |  | 360 | 2600 | 3700 |  | 
3 | CN1CCN(C2=Nc3ccccc3Nc3ccccc32)CC1 [DCZ, 11-(4-methyl-1-piperazinyl)-5H-dibenzo(b,e)(1,4)diazepine] | 0.13 | 0.081 | 6.3 |  | 4.2 | 230 | 210 | 83 | 55
